Reference: PubChem BioAssay (NCI)
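The compound was tested at five concentrations on cells cultured in 96-well plates, with a 48-hour exposure period. Here, GI50 denotes the concentration required for 50% inhibition of growth. TGI: concentration producing complete growth inhibition.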

Tests used:
Test in all cases: DTP human tumour cell line panel, 48 h
786-0 renal = tested on: 786-0 renal
A498 renal = tested on: A498 renal
A549 NSCLC = tested on: A549 NSCLC
ACHN renal = tested on: ACHN renal
BT-549 breast = tested on: BT-549 breast
CAKI-1 renal = tested on: CAKI-1 renal
CCRF-CEM leukemia = tested on: CCRF-CEM leukemia
COLO 205 colon = tested on: COLO 205 colon
DU-145 prostate = tested on: DU-145 prostate
EKVX NSCLC = tested on: EKVX NSCLC
HCC-2998 colon = tested on: HCC-2998 colon
HCT-116 colon = tested on: HCT-116 colon
HCT-15 colon = tested on: HCT-15 colon
HL-60(TB) leukemia = tested on: HL-60(TB) leukemia
HOP-62 NSCLC = tested on: HOP-62 NSCLC
HOP-92 NSCLC = tested on: HOP-92 NSCLC
HS 578T breast = tested on: HS 578T breast
HT29 colon = tested on: HT29 colon
IGROV1 ovarian = tested on: IGROV1 ovarian
KM12 colon = tested on: KM12 colon
LOX IMVI melanoma = tested on: LOX IMVI melanoma
M14 melanoma = tested on: M14 melanoma
MALME-3M melanoma = tested on: MALME-3M melanoma
MCF7 breast = tested on: MCF7 breast
MDA-MB-231 breast = tested on: MDA-MB-231 breast
MDA-MB-435 = tested on: MDA-MB-435
MOLT-4 leukemia = tested on: MOLT-4 leukemia
NCI-H226 lung = tested on: NCI-H226 lung
NCI-H23 lung = tested on: NCI-H23 lung
NCI-H460 lung = tested on: NCI-H460 lung
NCI-H522 lung = tested on: NCI-H522 lung
NCI/ADR-RES ovarian = tested on: NCI/ADR-RES ovarian
OVCAR-3 ovarian = tested on: OVCAR-3 ovarian
OVCAR-4 ovarian = tested on: OVCAR-4 ovarian
OVCAR-5 ovarian = tested on: OVCAR-5 ovarian
OVCAR-8 ovarian = tested on: OVCAR-8 ovarian
PC-3 prostate = tested on: PC-3 prostate
RPMI-8226 leukemia = tested on: RPMI-8226 leukemia
RXF 393 renal = tested on: RXF 393 renal
SF-268 CNS = tested on: SF-268 CNS
SF-295 CNS = tested on: SF-295 CNS
SF-539 CNS = tested on: SF-539 CNS
SK-MEL-2 melanoma = tested on: SK-MEL-2 melanoma
SK-MEL-28 melanoma = tested on: SK-MEL-28 melanoma
SK-MEL-5 melanoma = tested on: SK-MEL-5 melanoma
SK-OV-3 ovarian = tested on: SK-OV-3 ovarian
SN12C renal = tested on: SN12C renal
SNB-19 CNS = tested on: SNB-19 CNS
SNB-75 CNS = tested on: SNB-75 CNS
SR leukemia = tested on: SR leukemia
SW-620 colon = tested on: SW-620 colon
T-47D breast = tested on: T-47D breast
TK-10 renal = tested on: TK-10 renal
U251 CNS = tested on: U251 CNS
UACC-257 melanoma = tested on: UACC-257 melanoma
UACC-62 melanoma = tested on: UACC-62 melanoma
UO-31 renal = tested on: UO-31 renal

## Cc1ccc(C(=O)/C(=C/c2ccc([N+](=O)[O-])cc2)SCc2ccc(Cl)cc2)cc1
786-0 renal
  GI50: 1.66 µM
  TGI: 3.58 µM
A498 renal
  GI50: 24 µM
  TGI: > 100 µM
A549 NSCLC
  GI50: 98.5 µM
  TGI: > 100 µM
ACHN renal
  GI50: 1.69 µM
  TGI: 3.13 µM
BT-549 breast
  GI50: 1.93 µM
  TGI: 4.09 µM
CAKI-1 renal
  GI50: 1.7 µM
  TGI: 4.9 µM
CCRF-CEM leukemia
  GI50: 0.283 µM
  TGI: > 100 µM
COLO 205 colon
  GI50: 3.33 µM
  TGI: 20.7 µM
DU-145 prostate
  GI50: 5.33 µM
  TGI: > 100 µM
EKVX NSCLC
  GI50: 3.04 µM
  TGI: 13.9 µM
HCC-2998 colon
  GI50: 1.67 µM
  TGI: 3.37 µM
HCT-116 colon
  GI50: 0.317 µM
  TGI: 1.36 µM
HCT-15 colon
  GI50: 0.565 µM
  TGI: 2.69 µM
HL-60(TB) leukemia
  GI50: 2.35 µM
  TGI: 7.29 µM
HOP-62 NSCLC
  GI50: 29.7 µM
  TGI: > 100 µM
HOP-92 NSCLC
  GI50: 2.86 µM
  TGI: 55.2 µM
HS 578T breast
  GI50: 2.14 µM
  TGI: 6.96 µM
HT29 colon
  GI50: 0.676 µM
  TGI: 2.86 µM
IGROV1 ovarian
  GI50: 2.23 µM
  TGI: 8.6 µM
KM12 colon
  GI50: 1.91 µM
  TGI: 5.73 µM
LOX IMVI melanoma
  GI50: 0.445 µM
  TGI: 1.65 µM
M14 melanoma
  GI50: 2.52 µM
  TGI: 19.4 µM
MALME-3M melanoma
  GI50: 4.34 µM
  TGI: 19.2 µM
MCF7 breast
  GI50: 0.375 µM
  TGI: 3.08 µM
MDA-MB-231 breast
  GI50: 1.96 µM
  TGI: 5.8 µM
MDA-MB-435
  GI50: 1.86 µM
  TGI: 4.3 µM
MOLT-4 leukemia
  GI50: 0.471 µM
  TGI: > 100 µM
NCI-H226 lung
  GI50: > 100 µM
  TGI: > 100 µM
NCI-H23 lung
  GI50: 2.73 µM
  TGI: 20.7 µM
NCI-H460 lung
  GI50: 2.58 µM
  TGI: 12 µM
NCI-H522 lung
  GI50: 1.64 µM
  TGI: 3.54 µM
NCI/ADR-RES ovarian
  GI50: 2.06 µM
  TGI: 6.81 µM
OVCAR-3 ovarian
  GI50: 1.72 µM
  TGI: 3.54 µM
OVCAR-4 ovarian
  GI50: 1.87 µM
  TGI: 6.37 µM
OVCAR-5 ovarian
  GI50: 2.5 µM
  TGI: 9.12 µM
OVCAR-8 ovarian
  GI50: 1.86 µM
  TGI: 5.64 µM
PC-3 prostate
  GI50: 1.12 µM
  TGI: 3.49 µM
RPMI-8226 leukemia
  GI50: 0.24 µM
  TGI: 0.696 µM
RXF 393 renal
  GI50: 2.38 µM
  TGI: 7.03 µM
SF-268 CNS
  GI50: 2.44 µM
  TGI: 15.8 µM
SF-295 CNS
  GI50: 1.55 µM
  TGI: 3.4 µM
SF-539 CNS
  GI50: 2.06 µM
  TGI: 4.49 µM
SK-MEL-2 melanoma
  GI50: 15.8 µM
  TGI: 63.2 µM
SK-MEL-28 melanoma
  GI50: 3.36 µM
  TGI: 14.7 µM
SK-MEL-5 melanoma
  GI50: 2.34 µM
  TGI: 6.43 µM
SK-OV-3 ovarian
  GI50: 27.4 µM
  TGI: > 100 µM
SN12C renal
  GI50: 1.83 µM
  TGI: 4.68 µM
SNB-19 CNS
  GI50: 1.17 µM
  TGI: 3.02 µM
SNB-75 CNS
  GI50: 20.4 µM
  TGI: > 100 µM
SR leukemia
  GI50: 0.325 µM
  TGI: > 100 µM
SW-620 colon
  GI50: 0.21 µM
  TGI: 0.523 µM
T-47D breast
  GI50: 2.9 µM
  TGI: 36.7 µM
TK-10 renal
  GI50: 4.95 µM
  TGI: 30.7 µM
U251 CNS
  GI50: 1.11 µM
  TGI: 2.4 µM
UACC-257 melanoma
  GI50: 9.77 µM
  TGI: 34.2 µM
UACC-62 melanoma
  GI50: 1.34 µM
  TGI: 3.41 µM
UO-31 renal
  GI50: 1.2 µM
  TGI: 2.66 µM
